Measured values as given in article PMC11020070, “Discovery of Protease-Activated Receptor 4 (PAR4)-Tethered Ligand Antagonists Using Ultralarge Virtual Screening” (ACS Pharmacology & Translational Science, 2024).
“Also recorded” adds a separate entry of the source.

Key:
Assay type in all cases: cell-based
GPVI receptor = molecular target: T1, GPVI receptor (Homo sapiens, UniProt Q9HCN6); assay: Off-target control: convulxin activation of GPVI receptor in human platelets; settings: 10 μM compound, convulxin 3.16 nM
T1 construct: endogenous in cells; host or cells: washed human platelets
T1 sequence (Q9HCN6 21-339): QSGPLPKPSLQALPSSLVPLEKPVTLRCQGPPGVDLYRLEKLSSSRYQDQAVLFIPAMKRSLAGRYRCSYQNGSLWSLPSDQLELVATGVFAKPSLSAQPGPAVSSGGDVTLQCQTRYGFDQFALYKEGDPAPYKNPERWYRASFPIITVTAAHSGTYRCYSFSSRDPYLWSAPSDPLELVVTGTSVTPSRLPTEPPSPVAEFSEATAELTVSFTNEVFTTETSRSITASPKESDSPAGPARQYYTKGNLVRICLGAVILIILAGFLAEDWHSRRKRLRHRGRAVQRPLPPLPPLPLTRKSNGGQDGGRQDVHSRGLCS
T1 sequence (P30273 19-86 partner): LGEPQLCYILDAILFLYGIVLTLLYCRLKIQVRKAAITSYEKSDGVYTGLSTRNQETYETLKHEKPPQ
Method: The hit compound (7) was tested against several platelet activators including targeting PAR1, PAR4, and GPVI collagen receptors (Figure 5). […] Taken together, the inhibition of the off-target GPVI and the divergence of the inhibition of the γ-thrombin readouts PAC1 vs P-selectin are consistent with the C5 compound not being a specific antagonist of PAR4.
(§1) Figure 5 (A) Off-target controls: % of vehicle control for γ-thrombin (100 nM), PAR4 component of α-thrombin (5 nM α-thrombin +1 μM vorapaxar), PAR4 agonist peptide 200 μM AYPGKF, 200 μM PAR1 agonist peptide SFLLRN, and GPVI agonist convulxin 3.16 nM.
(§2) Compounds were screened for inhibition activity against human PAR4 using 100 nM γ-thrombin or 200 μM PAR4-AP in a single-point assay (10 μM test compound). Dose–response curves were conducted for active compounds. Active compounds were also assessed at a single concentration of 10 μM against other agonists, including the PAR4 component of α-thrombin (5 nM α-thrombin +1 μM vorapaxar), the PAR1 agonist peptide (20 μM SFFLRN), and the GPVI receptor agonist convulxin (3 nM).

PAR4 = molecular target: T2, PAR4 (Homo sapiens, UniProt Q96RI0); assay: Human platelet activation by PAR4 agonist peptide (PAR4-AP, AYPGKF); design: endogenous in cells; host or cells: platelets; settings: 10 μM compound, 200 μM AYPGKF
T2 sequence (Q96RI0 18-385): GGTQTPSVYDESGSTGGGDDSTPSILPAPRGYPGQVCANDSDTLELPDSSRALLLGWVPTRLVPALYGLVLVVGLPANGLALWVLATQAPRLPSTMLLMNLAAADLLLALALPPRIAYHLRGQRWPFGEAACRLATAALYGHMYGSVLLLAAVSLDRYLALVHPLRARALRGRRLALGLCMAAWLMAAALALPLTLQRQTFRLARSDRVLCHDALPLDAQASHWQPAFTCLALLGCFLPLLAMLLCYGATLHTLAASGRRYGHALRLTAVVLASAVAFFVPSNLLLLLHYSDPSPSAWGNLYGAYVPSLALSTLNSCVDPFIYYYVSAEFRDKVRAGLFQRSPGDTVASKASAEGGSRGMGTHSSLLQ
Method: To test the antagonistic effect of the compounds on PAR4, a flow cytometry assay of human platelets was employed. Each compound was screened at 10 μM in human platelets using flow cytometry for GPIIbIIIa activation (PAC1) and P-selectin (CD62p) expression as previously described.[4] Activation of GPIIbIIIa allows interaction with divalent fibrinogen or multivalent von Willebrand factor, leading to platelet aggregation.[41] PAR4 stimulation also triggers α-granule secretion containing P-selectin.[5] […] Platelets were treated with each test compound or vehicle control DMSO before activating with γ-thrombin (100 nM) or PAR4 agonist peptide mimetic (200 μM, “PAR4-AP” AYPGKF) for 30 min. γ-thrombin activates PAR4 but not PAR1.[42] […]
Activation of washed human platelets was monitored by flow cytometry for the detection of PAC1 (GPIIbIIIa activation) and CD62p (P-selectin expression) binding as previously described.[4] […] Platelets were collected, counted on a Z1 Coulter Particle Counter (Beckman Coulter, Brea, CA), and diluted in TBB to 1.5 × 10^7 platelets/mL. […] Data were collected on a three-laser BD LSRFortessa (Becton Dickinson) and analyzed with FlowJo software (FlowJo LLC, Ashland, OR). The mean fluorescence intensity (geometric) of PE and FITC was determined from 30,000 events after compensation correction. […]

PAR1 = molecular target: T3, PAR1 (Homo sapiens, UniProt P25116); assay: Human platelet activation by PAR1 agonist peptide SFLLRN; settings: 10 μM compound, PAR1AP SFLLRN
T3 construct: endogenous in cells; host or cells: platelets
T3 sequence (P25116 22-425): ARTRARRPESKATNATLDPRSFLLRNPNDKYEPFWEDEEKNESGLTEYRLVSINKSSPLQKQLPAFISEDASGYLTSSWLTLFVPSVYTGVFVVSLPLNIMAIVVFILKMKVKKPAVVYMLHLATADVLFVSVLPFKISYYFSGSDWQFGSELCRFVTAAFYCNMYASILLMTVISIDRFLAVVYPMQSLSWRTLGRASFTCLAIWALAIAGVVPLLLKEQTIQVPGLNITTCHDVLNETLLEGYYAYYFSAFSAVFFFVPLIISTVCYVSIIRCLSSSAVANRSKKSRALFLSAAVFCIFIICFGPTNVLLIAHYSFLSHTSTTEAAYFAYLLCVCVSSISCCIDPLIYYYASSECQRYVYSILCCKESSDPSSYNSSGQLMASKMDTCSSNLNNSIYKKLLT
Method: as §1, §2

Cc1nc(NC(=O)c2cc(-c3ccccc3)n(-c3ccccc3)n2)n[nH]1 [Compound 7]
inhibition of convulxin activation of GPVI receptor (GPVI receptor): did not inhibit
inhibition of PAR4 agonist peptide activation (PAR4): not inhibiting; also recorded: did not inhibit
inhibition of PAR1 agonist peptide activation (PAR1): did not inhibit
